Measured values reported in ChEMBL document CHEMBL5058564, “EUbOPEN Chemogenomics Library 2 (Incucyte)” (2022).

Experiments:
Assay type in all cases: toxicity, cell-based
[1] = test system: HEK-293T; experiment: Incucyte cell viability with HEK293T; details: human, 10 µM, compound concentration 10 uM
[2] = test system: U2OS; experiment: Incucyte cell viability with U2OS; details: human, 10 µM, compound concentration 10 uM
[3] = test system: Fibroblast; experiment: Incucyte cell viability with human fibroblast; details: 10 µM, compound concentration 10 uM
[4] = 6 h, replicate number 1, timepoint 6 hours
[5] = 6 h, replicate number 2, timepoint 6 hours
[6] = 12 h, replicate number 1, timepoint 12 hours
[7] = 12 h, replicate number 2, timepoint 12 hours
[8] = 18 h, replicate number 1, timepoint 18 hours
[9] = 18 h, replicate number 2, timepoint 18 hours
[10] = 24 h, replicate number 1, timepoint 24 hours
[11] = 24 h, replicate number 2, timepoint 24 hours
[12] = 0 h, replicate number 1, timepoint 0 hours
[13] = 0 h, replicate number 2, timepoint 0 hours
Note: unitless GR value; below 1 slowed growth and below 0 cell loss.

| Compound | Growth Rate [1, 4] | Growth Rate [1, 5] | Growth Rate [1, 6] | Growth Rate [1, 7] | Growth Rate [1, 8] | Growth Rate [1, 9] | Growth Rate [1, 10] | Growth Rate [1, 11] | Growth Rate [2, 12] | Growth Rate [2, 13] | Growth Rate [2, 4] | Growth Rate [2, 7] | Growth Rate [2, 8] | Growth Rate [2, 9] | Growth Rate [2, 11] | Growth Rate [3, 13] | Growth Rate [3, 4] | Growth Rate [3, 6] | Growth Rate [3, 8] | Growth Rate [3, 10] | other results |
| --- | --- | --- | --- | --- | --- | --- | --- | --- | --- | --- | --- | --- | --- | --- | --- | --- | --- | --- | --- | --- | --- |
| O=C(NCCO)c1cccc(-c2cc(Nc3ccc(OC(F)(F)F)cc3)ncn2)c1 | -0.41 | -0.4 | -0.19 | -0.13 | 0.05 | 0.17 | 0.15 | 0.26 | -0.12 | 0.42 | 0.49 | 0.83 | 0.47 | 0.99 | 0.91 | 0.6 | -0.91 | -0.72 | -0.61 | -0.55 | Growth Rate [2, 5]: 1; Growth Rate [2, 6]: 0.52; Growth Rate [2, 10]: 0.79; Growth Rate [3, 7]: 0.04; Growth Rate [3, 9]: 0.03; Growth Rate [3, 11]: 0.06 |
| Cc1nn(C)c(C)c1-c1cccc2c1CC[C@H](N(C)C)C2 | 0.95 |  | 0.97 |  | 0.97 |  | 0.9 |  | -0.3 | 0.01 | 0.52 | 0.8 | 0.69 | 0.97 | 0.99 | -0.09 |  | 0.75 | 0.49 | 0.61 | Growth Rate [1, 13]: 0.25; Growth Rate [2, 5]: 0.91; Growth Rate [2, 6]: 0.78; Growth Rate [2, 10]: 0.86; Growth Rate [3, 12]: 0.48 |
| COCCn1c(C)c(C)s/c1=N\C(=O)C1C(C)(C)C1(C)C |  | 0.77 |  | 0.76 |  |  |  |  | 0.47 | -1 |  |  | 1 | 0.93 | 0.97 | 0.2 |  |  |  |  | Growth Rate [1, 12]: 0.71; Growth Rate [2, 10]: 0.98; Growth Rate [3, 12]: 0.65 |
| N#Cc1c(Oc2cccc(OS(=O)(=O)CCCC(F)(F)F)c2)cccc1C(F)(F)F | -0.16 | 0.24 | 0 | 0.28 | -0.01 | 0.31 | 0.06 | 0.55 |  | 0.57 |  | 0.82 |  | 0.81 | 0.96 |  | -0.53 | -0.11 | -0.21 | -0.18 | Growth Rate [2, 6]: 0.86; Growth Rate [3, 12]: 0.09; Growth Rate [3, 5]: -0.47; Growth Rate [3, 7]: -0.08; Growth Rate [3, 9]: 0.02; Growth Rate [3, 11]: 0 |
| C[C@H]1[C@H](OC(=O)CCC(=O)O)O[C@@H]2O[C@@]3(C)CC[C@H]4[C@H](C)CC[C@@H]1[C@@]24OO3 [ARTESUNATE] | 0.56 |  | -0.23 | -0.1 | -0.07 | -0.18 | -0.08 | -0.16 | 0.12 | 0.07 | 0.66 | 0.85 | 0.86 | 0.75 | 0.81 | 0.19 |  | 0.22 | -0.31 | -0.42 | Growth Rate [1, 13]: 0.58; Growth Rate [2, 5]: 0.72; Growth Rate [2, 10]: 0.98; Growth Rate [3, 12]: 0.98; Growth Rate [3, 7]: 0.75; Growth Rate [3, 9]: 0.04; Growth Rate [3, 11]: -0.06 |
| CN(C)[C@H]1CN(C2CCc3cccc(F)c32)C[C@@H]1c1ccc(N2CCN(S(C)(=O)=O)CC2)cc1 (stereo partly drawn) |  | 0.35 |  | 0.71 |  | 0.89 |  | 0.8 | -0.44 | -0.68 | 0.58 | 0.83 | 0.87 | 0.9 | 0.98 |  |  |  | 0.68 | 0.75 | Growth Rate [2, 5]: 0.61; Growth Rate [2, 6]: 0.63; Growth Rate [2, 10]: 0.97; Growth Rate [3, 5]: 0.88 |
| COc1ccccc1N1CCN(C[C@@H](C(=O)NC(C)(C)C)c2ccccc2)CC1.Cl.Cl |  | 0.54 |  | 0.79 |  |  |  |  |  | -0.77 | 0.29 |  | 0.77 | 0.92 | 1 | 0.48 | 0.54 | 0.69 | 1 | 0.57 | Growth Rate [1, 12]: 0.89; Growth Rate [3, 5]: 0.96 |
| O=C(Nc1cc(C(F)(F)F)ccc1N1CCN(Cc2ccccn2)CC1)c1ccc(-c2ccncc2)o1 | 0.44 | 0.41 | -0.16 | -0.05 | -0.1 | -0.19 | -0.03 | -0.11 | -0.79 | -1 |  | 0.93 |  | 0.83 | 0.76 |  | 0.13 | -0.19 | 0.1 | 0.21 | Growth Rate [1, 12]: 0.95; Growth Rate [1, 13]: 0.73; Growth Rate [3, 12]: 0.86; Growth Rate [3, 5]: -0.21; Growth Rate [3, 7]: 0.06; Growth Rate [3, 9]: 0.16; Growth Rate [3, 11]: 0.56 |
| O=C(O)CCC/C=C\CC1C(O)CC(O)C1/C=C/C(O)COc1cccc(Cl)c1 (stereo not drawn) [CLOPROSTENOL] | 0.34 | 0.93 | 0.74 |  | 0.75 | 0.99 | 0.95 |  | -0.27 | -0.99 |  |  | 0.7 |  |  | 0.34 | -0.06 | 0.25 | 0.2 | 0.18 | Growth Rate [1, 13]: 0.63; Growth Rate [2, 5]: 0.74 |
| CC[C@@H](C)Nc1nc(C)nc2c(-c3ccc(OC)nc3C)c(C)nn12 [PEXACERFONT] |  |  |  | 0.9 | 0.93 |  | 0.84 |  |  | -1 | 1 |  | 0.67 |  |  | 0.28 | -0.25 | -0.18 | -0.19 | -0.13 | Growth Rate [1, 12]: 0.85; Growth Rate [1, 13]: 0.62; Growth Rate [2, 6]: 0.45; Growth Rate [3, 5]: -0.51; Growth Rate [3, 7]: 0.49; Growth Rate [3, 9]: 0.94; Growth Rate [3, 11]: 1 |
